Test results as given in PubChem BioAssay AID651584 (Broad Institute, 2012).
“And” between values parts separate entries of the source, which are not always exact repeats. Equal values may be shown once. The source made the active and inactive calls.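 Rule for the calls: active = viability loss whose fitted half-maximal potency is at most twice the top valid dose for that sample; inconclusive = flat curve with 30 to 70% viability loss, or poor fit; inactive = the rest.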

Legend:
[1] = tested on: MALME3 melanoma viability, CellTiter-Glo ATP luminescence, 24 h; experiment: growth inhibition of MALME3 cells – cell-based, CellTiter-Glo luminescence, dry powder, set 5, orthogonal assay for MITF inhibitor project, dose response (AID 651584)
[2] = as above; details: MALME3 melanoma viability, CellTiter-Glo ATP luminescence, 24 h; at 35 µM (top of the series)

Row | Compound | AC50 [1] | activity change, negative = viability loss [2]
1 | O=C1C=C(Nc2ccccc2)C(=O)c2ccccc21 | 5.86 µM and 28.4 µM | –
2 | NC1=C(NS(=O)(=O)c2ccc(Br)s2)C(=O)c2ccccc2C1=O | – | -3.99% (inactive)
